How the values were obtained:
[1] = system: interferon production in human PBMC; assay: Interferon production in human PBMC, read out on HEK-ISRE-luc reporter cells; format: cell-based; details: lowest effective concentration, PBMC supernatant after overnight incubation transferred to HEK-ISRE-luc cells; for minimal effective concentration: Homo sapiens, PBMC, 24 h, read-out: PBMC HEK-ISRE-luc (LEC; μM)
Experimental: Activation of human TLR7 results in robust production of interferon by plasmacytoid dendritic cells present in human blood. The potential of compounds to induce interferon was evaluated by determination of interferon in the conditioned media from peripheral blood mononuclear cells (PBMC). The presence of interferon in the samples was determined, using an interferon reporter cell line stably expressing an interferon-stimulated responsive elements (ISRE)-luc reporter construct. The ISRE element with sequence GAAACTGAAACT (SEQ ID: 1) is highly responsive to the STAT1-STAT2-IRF9 transcription factor, which becomes activated upon binding of IFN-I to the IFN receptor. Briefly, PBMCs were prepared from buffy coats of at least two donors using a standard Ficoll centrifugation protocol. Isolated PBMCs were resuspended in RPMI medium supplemented with 10% human AB serum and 2×10^5 cells/well were dispensed into 384-well plates containing compounds (70 μL total volume). After overnight incubation of the PBMCs with the compounds, 10 μL of supernatant was transferred to 384-well plates containing 5×10^3 HEK-ISRE-luc cells/well in 30 μL (plated the day before). Following 24 hours of incubation, activation of the ISRE elements was measured by assaying luciferase activity using 40 μL/well Steady Lite Plus substrate (Perkin Elmer) and measured with ViewLux ultraHTS microplate imager (Perkin Elmer). The stimulating activity of each compound on the HEK-ISRE-luc cells was reported as LEC. The LEC in turn indicates the degree of ISRE activation on transfer of a defined amount of PBMC culture medium. Recombinant interferon alfa-2a (Roferon-A) was used as a standard control compound.

human TLR7 = molecular target: T1, human TLR7 (Homo sapiens, UniProt Q9NYK1); assay: TLR7 cellular reporter assay (HEK293 TLR7-NFκB-luc); format: cell-based; details: lowest effective concentration; HEK293 transiently transfected with TLR7 and NFκB-luc; 6 hours incubation
T1 construct: expressed in transfected cells; host or cells: HEK293
T1 sequence (Q9NYK1 27-1049): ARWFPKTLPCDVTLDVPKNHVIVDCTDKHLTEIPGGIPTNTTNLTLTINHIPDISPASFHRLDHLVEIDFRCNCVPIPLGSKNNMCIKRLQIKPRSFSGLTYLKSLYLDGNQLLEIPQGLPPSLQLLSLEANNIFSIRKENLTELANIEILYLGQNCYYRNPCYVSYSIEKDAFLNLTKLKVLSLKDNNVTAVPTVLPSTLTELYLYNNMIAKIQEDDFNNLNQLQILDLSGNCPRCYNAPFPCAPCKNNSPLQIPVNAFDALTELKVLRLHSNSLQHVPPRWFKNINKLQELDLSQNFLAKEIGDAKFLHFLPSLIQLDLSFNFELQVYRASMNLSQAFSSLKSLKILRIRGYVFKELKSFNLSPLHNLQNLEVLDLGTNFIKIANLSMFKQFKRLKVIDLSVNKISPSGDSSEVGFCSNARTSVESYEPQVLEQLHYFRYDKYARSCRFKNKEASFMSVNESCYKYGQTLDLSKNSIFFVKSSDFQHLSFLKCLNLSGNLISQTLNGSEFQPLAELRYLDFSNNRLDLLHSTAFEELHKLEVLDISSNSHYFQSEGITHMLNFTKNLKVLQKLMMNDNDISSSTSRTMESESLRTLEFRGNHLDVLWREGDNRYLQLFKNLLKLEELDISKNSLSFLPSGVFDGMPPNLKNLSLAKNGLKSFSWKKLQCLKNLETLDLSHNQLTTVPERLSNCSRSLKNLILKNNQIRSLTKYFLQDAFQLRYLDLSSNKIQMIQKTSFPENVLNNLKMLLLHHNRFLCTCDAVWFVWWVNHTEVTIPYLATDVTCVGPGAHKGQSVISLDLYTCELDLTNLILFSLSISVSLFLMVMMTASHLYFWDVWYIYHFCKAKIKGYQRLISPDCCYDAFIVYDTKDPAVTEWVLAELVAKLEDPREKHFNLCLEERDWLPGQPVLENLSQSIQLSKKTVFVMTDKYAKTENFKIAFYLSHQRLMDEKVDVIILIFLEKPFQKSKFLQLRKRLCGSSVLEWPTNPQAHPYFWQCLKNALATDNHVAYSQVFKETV
Experimental: The ability of compounds to activate human TLR7 and TLR8 was assessed in a cellular reporter assay using HEK293 cells transiently transfected with a TLR7 or TLR8 expression vector and NFκB-luc reporter construct. Briefly, HEK293 cells were grown in culture medium (DMEM supplemented with 10% FCS and 2 mM Glutamine). For transfection of cells in 10 cm dishes, cells were detached with Trypsin-EDTA, transfected with a mix of CMV-TLR7 or TLR8 plasmid (750 ng), NFκB-luc plasmid (375 ng) and a transfection reagent and incubated 48 hours at 37° C. in a humidified 5% CO2 atmosphere. Transfected cells were then detached with Trypsin-EDTA, washed in PBS and resuspended in medium to a density of 1.67×10^5 cells/mL. Thirty microliters of cells were then dispensed into each well in 384-well plates, where 10 μL of compound in 4% DMSO was already present. Following 6 hours incubation at 37° C., 5% CO2, the luciferase activity was determined by adding 15 μl of Steady Lite Plus substrate (Perkin Elmer) to each well and readout performed on a ViewLux ultraHTS microplate imager (Perkin Elmer). Dose response curves were generated from measurements performed in quadruplicates. Lowest effective concentrations (LEC) values, defined as the concentration that induces an effect which is at least two fold above the standard deviation of the assay, were determined for each compound.

SMILES | minimal effective concentration [1] [µM] | HEK293 TLR7-NFκB-luc (LEC; μM) (human TLR7) [µM] | PBMC HEK-ISRE-luc (LEC; μM) ([1]; 24 hours) [µM]
Nc1nc2nc3c1nc(O)n3Cc1ncccc1OCCCCCO2 [Compound 50] | 0.24 | 1.19 | –
Nc1nc2nc3c1nc(O)n3Cc1cccc(c1)OCCCCCC(CO)N2 (centres unmarked) [Compound 19] | 0.14 | 2.24 | –
Nc1nc2nc3c1nc(O)n3CCc1cccc(c1)OC/C=C\CO2 [Compound 84] | 0.51 | 3.4 | –
COc1cc2cc(c1)OCCCCOc1nc(N)c3nc(O)n(c3n1)C2 [Compound 53] | 0.01 | 0.029 | –
Nc1nc2nc3c1ncn3Cc1cccc(c1)C/C=C\CCO2 [Compound 52] | 4.8 | 7.96 | –
Nc1nc2nc3c1nc(O)n3Cc1cccc(c1)C/C=C/CCN2 [Compound 29] | 0.15 | 0.81 | –
Nc1nc2nc3c1nc(O)n3Cc1cc(ccn1)OCCCCCO2 [Compound 58] | 0.086 | 0.63 | –
Nc1nc2nc3c1nc(O)n3Cc1cccc(c1)OC/C=C/CCCO2 [Compound 33] | 0.11 | 0.17 | –
Nc1nc2nc3c1nc(O)n3Cc1ncccc1/C=C\CCCCO2 [Compound 42] | 0.5 | 2.28 | –
Nc1nc2nc3c1nc(O)n3Cc1cccc(=O)n1CCCCN2 [Compound 35] | 0.41 | 1.68 | –
Nc1nc2nc3c1nc(O)n3Cc1cccc(n1)COCCCCO2 [Compound 24] | 0.15 | 1.05 | –
Nc1nc2nc3c1ncn3Cc1cccc(c1)OC/C=C\CO2 [Compound 55] | 15.3 | >25 | –
Nc1nc2nc3c1nc(O)n3Cc1cccc(c1)C/C=C/CCCn1ccnc1-2 [Compound 3] | 0.14 | 1.05 | –
COc1ccc2cc1CCCCCOc1nc(N)c3nc(O)n(c3n1)C2 [Compound 66] | 0.018 | 0.032 | –
Nc1nc2nc3c1nc(O)n3Cc1cccc(c1)OC/C=C/CCC(CO)N2 (centres unmarked) [Compound 18] | 0.056 | 0.82 | –
Nc1nc2nc3c1nc(O)n3Cc1cccc(c1)OC/C=C/CO2 [Compound 23] | 0.012 | 0.043 | –
Nc1nc2nc3c1nc(O)n3Cc1cccc(c1)OCC/C=C\CO2 [Compound 20] | 0.15 | 0.74 | –
Nc1nc2nc3c1nc(O)n3Cc1cccc(c1)OCCCCCN2 [Compound 14] | 0.51 | 1.68 | –
Nc1nc2nc3c1nc(O)n3Cc1cccc(c1)OCCCCCO2 [Compound 38] | 0.027 | 0.53 | –
Nc1nc2nc3c1nc(O)n3Cc1ccccc1C/C=C\CCO2 [Compound 48] | 2.04 | 0.64 | –

SMILES | minimal effective concentration [1] [µM] | HEK293 TLR7-NFκB-luc (LEC; μM) (human TLR7) [µM] | PBMC HEK-ISRE-luc (LEC; μM) ([1]; 24 hours) [µM]
CN1CCOC(=O)Cc2cccc(c2)Cn2c(O)nc3c(N)nc1nc32 [Compound 85] | 12.5 | 0.33 | –
COc1cc2cc(c1)OC/C=C\COc1nc(N)c3nc(O)n(c3n1)C2 [Compound 65] | 0.03 | 0.038 | –
Nc1nc2nc3c1ncn3Cc1ncccc1OC/C=C/CCO2 [Compound 78] | > 25 | 9.68 | –
Nc1nc2nc3c1nc(O)n3Cc1cc(ccn1)OC/C=C\CCO2 [Compound 37] | 0.12 | 0.8 | –
COc1ccc2cc1Cn1c(O)nc3c(N)nc(nc31)OCCCCO2 [Compound 70] | 0.04 | 0.15 | –
COc1ccc2cc1Cn1c(O)nc3c(N)nc(nc31)OC/C=C/CO2 [Compound 63] | 0.031 | 0.12 | –
COc1ccc2cc1OC/C=C\COc1nc(N)c3nc(O)n(c3n1)C2 [Compound 57] | 0.021 | 0.08 | –
Nc1nc2nc3c1nc(O)n3Cc1ccc(cc1)OC/C=C/CCCO2 [Compound 81] | 0.63 | 4.59 | –
Nc1nc2nc3c1nc(O)n3CCc1cccc(c1)OC/C=C/CCO2 [Compound 86] | 2.43 | 7.91 | –
Nc1nc2nc3c1nc(O)n3Cc1ccc(cc1)C/C=C/CCCCO2 [Compound 30] | 0.56 | 0.87 | –
COc1ccc2cc1OC/C=C\COc1nc(N)c3nc(O)n(c3n1)C2 [Compound 60] | – | 0.088 | 0.033
Nc1nc2nc3c1nc(O)n3Cc1cccc(c1)C/C=C/CCCO2 [Compound 16] | 0.11 | 0.375 | –
COc1ccc2cc1C/C=C\CCOc1nc(N)c3nc(O)n(c3n1)C2 [Compound 67] | 0.0028 | 0.0024 | –
COc1c2cccc1OC/C=C\COc1nc(N)c3nc(O)n(c3n1)C2 [Compound 62] | 2.03 | 7.26 | –
COc1c2cccc1OCCCCOc1nc(N)c3nc(O)n(c3n1)C2 [Compound 59] | 1.92 | 4.41 | –
COc1ccc2cc1Cn1c(O)nc3c(N)nc(nc31)OCCCCC2 [Compound 69] | 0.039 | 0.2 | –
Nc1nc2nc3c1nc(O)n3Cc1ncccc1OC/C=C/CCO2 [Compound 44] | 0.62 | 5.77 | –
Nc1nc2nc3c1nc(O)n3Cc1ccc(nc1)OCC(=O)NCCCO2 [Compound 6] | 1.73 | >10 | –
Nc1nc2nc3c1nc(O)n3Cc1cccc(c1)OC/C=C\CCO2 [Compound 26] | 0.093 | 0.027 | –
Nc1nc2nc3c1nc(O)n3Cc1cccc(c1)OC/C=C\CO2 [Compound 22] | 0.054 | 0.12 | –

Reference: patent publication US10822349B2, “Macrocyclic purines for the treatment of viral infections” (JANSSEN SCIENCES IRELAND UNLIMITED COMPANY, priority 2012, dated 2020)
